Measured values reported in the supplement of paper PMC11061612.

Assays:
Assay in all cases: combination Emax (second highest fraction inhibited in the dose matrix, 72 h); higher = more inhibition; extreme values may be limits of the assay
[1] = system: CAL-33 (Oral Cavity Carcinoma)
How it was run: (§1)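 Cell lines in DMEM/F12 or RPMI with 10% FBS were plated in 1536-well plates, held 24 hours at 37°C, 5% CO2, then given two-drug dose matrices for 72 hours (DMSO typically 0.2%). Viability was read by CellTiter-Glo 2.0 luminescence and scaled as inhibition from 0 (vehicle wells) to 1 (blank wells). Combination Emax is the second-highest inhibition in the matrix; Bliss excess is observed combination effect minus expected EA + EB − EA·EB, EA and EB being single-agent effects.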

[2] = system: NCI-H2722 (Mesothelioma)
How it was run: as §1

[3] = system: SAS (Oral Cavity Carcinoma)
How it was run: as §1

[4] = system: OV-56 (Ovarian Carcinoma)
How it was run: as §1

[5] = system: HeLa (Cervical Carcinoma)
How it was run: as §1

[6] = system: NCI-H1568 (Lung Adenocarcinoma)
How it was run: as §1

[7] = system: Detroit562 (Head and Neck Carcinoma)
How it was run: as §1

[8] = system: NCI-H2052 (Mesothelioma)
How it was run: as §1

[9] = system: HuCCT1 (Biliary Tract Carcinoma)
How it was run: as §1

[10] = system: SW1573 (Lung Adenocarcinoma)
How it was run: as §1

[11] = system: HuH-7 (Hepatocellular Carcinoma)
How it was run: as §1

[12] = system: FTC-133 (Thyroid Gland Carcinoma)
How it was run: as §1

[13] = system: Hs-746T (Gastric Carcinoma)
How it was run: as §1

[14] = system: NCI-H209 (Small Cell Lung Carcinoma)
How it was run: as §1

[15] = system: NCI-H524 (Small Cell Lung Carcinoma)
How it was run: as §1

[16] = system: L-428 (Hodgkin's Lymphoma)
How it was run: as §1

[17] = system: LS-123 (Colorectal Carcinoma)
How it was run: as §1

[18] = system: CAL-72 (Osteosarcoma)
How it was run: as §1

[19] = system: OE21 (Esophageal Squamous Cell Carcinoma)
How it was run: as §1

[20] = system: LOXIMVI (Melanoma)
How it was run: as §1

Row | Structure (SMILES) | combination Emax [1] | combination Emax [2] | combination Emax [3] | combination Emax [4] | combination Emax [5] | combination Emax [6] | combination Emax [7] | combination Emax [8] | combination Emax [9] | combination Emax [10] | combination Emax [11] | combination Emax [12] | combination Emax [13] | combination Emax [14] | combination Emax [15] | combination Emax [16] | combination Emax [17] | combination Emax [18] | combination Emax [19] | combination Emax [20]
1 | Cc1c2c(nn1C)CSCc1cc(n(C)n1)CSc1cc(c3ccccc3c1)OCCCc1c(C(=O)O)n(C)c3c-2c(Cl)ccc13 [AZD5991] + C[C@@H]1COCCN1C2=NC(=NC(=C2)C3(CC3)[S@](=N)(=O)C)C4=C5C=CNC5=NC=C4 [AZD6738] (first compound max 1 µM, 7x7, partner max 10 µM) | 0.901 | 0.401 | 0.849 | 0.558 | 0.856 | 0.502 | 0.902 | 0.338 | 0.756 | 0.368 | 0.279 | 0.923 | 0.551 | 0.997 | 0.854 | 0.808 | 0.609 | 0.832 | 0.844 | 0.742
2 | Cc1c2c(nn1C)CSCc1cc(n(C)n1)CSc1cc(c3ccccc3c1)OCCCc1c(C(=O)O)n(C)c3c-2c(Cl)ccc13 [AZD5991] + C[C@@H](Nc1cc(F)cc(F)c1)c1cc(C(=O)N(C)C)cc2c(=O)cc(N3CCOCC3)oc12 [AZD8186] (first compound max 1 µM, 7x7, partner max 3 µM) | 0.28 | 0.197 | 0.321 | 0.212 | 0.614 | 0.225 | 0.305 | 0.374 | 0.4 | 0.288 | 0.208 | 0.667 | 0.487 | 0.384 | 0.436 | 0.12 | 0.336 | 0.365 | 0.397 | 0.268
3 | Cc1c2c(nn1C)CSCc1cc(n(C)n1)CSc1cc(c3ccccc3c1)OCCCc1c(C(=O)O)n(C)c3c-2c(Cl)ccc13 [AZD5991] + Cc1cc2ncnn2cc1Nc1ncc2c(n1)n(C1CCOCC1)c(=O)n2C [AZD7648] (first compound max 1 µM, 7x7, partner max 10 µM) | 0.302 | 0.234 | 0.286 | 0.189 | 0.485 | 0.232 | 0.422 | 0.394 | 0.406 | 0.19 | 0.185 | 0.649 | 0.319 | 0.431 | 0.501 | 0.251 | 0.399 | 0.523 | 0.385 | 0.467
4 | Cc1c2c(nn1C)CSCc1cc(n(C)n1)CSc1cc(c3ccccc3c1)OCCCc1c(C(=O)O)n(C)c3c-2c(Cl)ccc13 [AZD5991] + Cn1cnc2c(F)c(Nc3ccc(Br)cc3Cl)c(C(=O)NOCCO)cc21 [Selumetinib] (first compound max 1 µM, 7x7, partner max 3 µM) | 0.411 | 0.238 | 0.44 | 0.189 | 0.496 | 0.563 | 0.365 | 0.314 | 0.508 | 0.169 | 0.301 | 0.738 | 0.422 | 0.402 | 0.336 | 0.0936 | 0.455 | 0.406 | 0.469 | 0.513
5 | C[C@@H]1COCCN1c1cc(C2([S@](C)(=N)=O)CC2)nc(-c2ccnc3[nH]ccc23)n1 [AZD6738] + O=C(c1cc(Cc2n[nH]c(=O)c3ccccc23)ccc1F)N1CCN(C(=O)C2CC2)CC1 [Olaparib] (first compound max 10 µM, 7x7, partner max 10 µM) | 0.763 | 0.292 | 0.839 | 0.69 | 0.713 | 0.416 | 0.862 | 0.478 | 0.784 | 0.217 | 0.357 | 0.672 | 0.582 | 0.94 | 0.746 | 0.728 | 0.764 | 0.8 | 0.661 | 0.978
6 | NC1(C(=O)N[C@@H](CCO)c2ccc(Cl)cc2)CCN(c2ncnc3[nH]ccc23)CC1 [Capivasertib] + CC(=O)c1c(C)c2cnc(Nc3ccc(N4CCNCC4)cn3)nc2n(C2CCCC2)c1=O [Palbociclib] (first compound max 10 µM, 7x7, partner max 10 µM) | 0.499 | 0.326 | 0.575 | 0.41 | 0.196 | 0.357 | 0.783 | 0.419 | 0.43 | 0.382 | 0.23 | 0.565 | 0.588 | 0.603 | 0.666 | 0.436 | 0.364 | 0.481 | 0.714 | 0.688
7 | NC1(C(=O)N[C@@H](CCO)c2ccc(Cl)cc2)CCN(c2ncnc3[nH]ccc23)CC1 [Capivasertib] + CC(C)n1c(=O)n(C)c2cnc3cc(F)c(-c4ccc(OCCCN5CCCCC5)nc4)cc3c21 [AZD1390] (first compound max 10 µM, 7x7, partner max 0.3 µM) | 0.478 | 0.34 | 0.26 | 0.209 | 0.199 | 0.163 | 0.599 | 0.407 | 0.24 | 0.235 | 0.156 | 0.582 | 0.332 | 0.17 | 0.343 | 0.162 | 0.325 | 0.265 | 0.621 | 0.401
8 | NC1(C(=O)N[C@@H](CCO)c2ccc(Cl)cc2)CCN(c2ncnc3[nH]ccc23)CC1 [Capivasertib] + CCN(CCO)CCCOc1ccc2c(Nc3cc(CC(=O)Nc4cccc(F)c4)[nH]n3)ncnc2c1 [AZD2811] (first compound max 10 µM, 7x7, partner max 1 µM) | 0.897 | 0.515 | 0.299 | 0.249 | 0.23 | 0.22 | 0.892 | 0.427 | 0.309 | 0.374 | 0.225 | 0.643 | 0.403 | 0.428 | 0.992 | 0.302 | 0.398 | 0.321 | 0.642 | 0.517
9 | NC1(C(=O)N[C@@H](CCO)c2ccc(Cl)cc2)CCN(c2ncnc3[nH]ccc23)CC1 [Capivasertib] + COc1nnc2ccc(N3CCC(c4ccc(OCCN5CCN(C)C(=O)[C@H]5C)cc4)CC3)nn12 [AZD5153] (first compound max 10 µM, 7x7, partner max 1 µM) | 0.749 | 0.473 | 0.801 | 0.41 | 0.423 | 0.305 | 0.925 | 0.427 | 0.609 | 0.409 | 0.518 | 0.73 | 0.599 | 0.539 | 0.667 | 0.742 | 0.418 | 0.481 | 0.882 | 0.952
10 | NC1(C(=O)N[C@@H](CCO)c2ccc(Cl)cc2)CCN(c2ncnc3[nH]ccc23)CC1 [Capivasertib] + C[C@@H]1COCCN1C2=NC(=NC(=C2)C3(CC3)[S@](=N)(=O)C)C4=C5C=CNC5=NC=C4 [AZD6738] (first compound max 10 µM, 7x7, partner max 10 µM) | 0.918 | 0.533 | 0.829 | 0.542 | 0.518 | 0.664 | 0.918 | 0.57 | 0.688 | 0.461 | 0.453 | 0.802 | 0.582 | 0.9 | 0.712 | 0.77 | 0.457 | 0.842 | 0.858 | 0.779
11 | NC1(C(=O)N[C@@H](CCO)c2ccc(Cl)cc2)CCN(c2ncnc3[nH]ccc23)CC1 [Capivasertib] + Cn1cnc2c(F)c(Nc3ccc(Br)cc3Cl)c(C(=O)NOCCO)cc21 [Selumetinib] (first compound max 10 µM, 7x7, partner max 10 µM) | 0.789 | 0.336 | 0.615 | 0.398 | 0.253 | 0.229 | 0.798 | 0.443 | 0.717 | 0.362 | 0.45 | 0.608 | 0.691 | 0.163 | 0.303 | 0.126 | 0.555 | 0.305 | 0.924 | 0.782
12 | COc1cccc2c1C(=O)c1c(O)c3c(c(O)c1C2=O)C[C@@](O)(C(=O)CO)C[C@@H]3O[C@H]1C[C@H](N)[C@H](O)[C@H](C)O1 [Doxorubicin] + Cc1cc2ncnn2cc1Nc1ncc2c(n1)n(C1CCOCC1)c(=O)n2C [AZD7648] (first compound max 1 µM, 7x7, partner max 10 µM) | 0.873 | 0.823 | 0.921 | 0.711 | 0.499 | 0.197 | 0.681 | 0.745 | 0.746 | 0.533 | 0.23 | 0.92 | 0.737 | 0.993 | 0.693 | 0.937 | 0.87 | 0.663 | 0.593 | 0.952
13 | CS(=O)(=O)CCNCc1ccc(-c2ccc3ncnc(Nc4ccc(OCc5cccc(F)c5)c(Cl)c4)c3c2)o1 [Lapatinib] + C[C@@H](Oc1cc(-c2cnn(C3CCNCC3)c2)cnc1N)c1c(Cl)ccc(F)c1Cl [Crizotinib] (first compound max 10 µM, 7x7, partner max 10 µM) | 0.989 | 0.449 | 0.825 | 0.872 | 0.859 | 0.952 | 1 | 0.61 | 0.883 | 0.462 | 0.925 | 0.84 | 0.876 | 0.927 | 0.952 | 0.913 | 0.746 | 0.906 | 0.936 | 0.977
